Experiments:
Assay type in all cases: in vivo
[1] = system: foxtail, giant (giant foxtail, Setaria faberii); assay: Test A postemergence, visual plant response rating; settings: for Foxtail, Giant plant response rating (0 to 100 scale): 500 g ai/ha, postemergence, 0 is no effect, 100 is complete control; for Foxtail, Giant plant response rating: Postemergence, 125 g ai/ha, 0 to 100 scale (0 no effect, 100 complete control)
In short: (§1)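 Greenhouse pot test in loam–sand soil mix: compound in a surfactant-containing non-phytotoxic solvent applied preemergence (directed soil spray) or postemergence (one- to two-leaf plants, 2–10 cm). Injury scored visually after ~10 days, 0–100.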

[2] = system: ragweed (common ragweed, Ambrosia elatior); assay: Test A postemergence, visual plant response rating; settings: for Ragweed plant response rating (0 to 100 scale): 500 g ai/ha, postemergence, 0 is no effect, 100 is complete control; for Ragweed plant response rating: Postemergence, 125 g ai/ha, 0 to 100 scale (0 no effect, 100 complete control)
In short: as §1

[3] = system: galium (catchweed bedstraw, Galium aparine); assay: Test A postemergence, visual plant response rating; settings: for Galium plant response rating (0 to 100 scale): 500 g ai/ha, postemergence, 0 is no effect, 100 is complete control; for Galium plant response rating: Postemergence, 125 g ai/ha, 0 to 100 scale (0 no effect, 100 complete control)
In short: as §1

[4] = system: blackgrass (Alopecurus myosuroides); assay: Test A postemergence, visual plant response rating; settings: for Blackgrass plant response rating (0 to 100 scale): 500 g ai/ha, postemergence, 0 is no effect, 100 is complete control; for Blackgrass plant response rating: Postemergence, 125 g ai/ha, 0 to 100 scale (0 no effect, 100 complete control)
In short: as §1

[5] = system: wheat (Triticum aestivum); assay: Test A postemergence, visual plant response rating; settings: for Wheat plant response rating (0 to 100 scale): 500 g ai/ha, postemergence, 0 is no effect, 100 is complete control; for Wheat plant response rating: Postemergence, 125 g ai/ha, 0 to 100 scale (0 no effect, 100 complete control)
In short: as §1

corn (Zea mays) = assay: Test A postemergence, visual plant response rating; settings: for Corn plant response rating (0 to 100 scale): 500 g ai/ha, postemergence, 0 is no effect, 100 is complete control; for Corn plant response rating: Postemergence, 125 g ai/ha, 0 to 100 scale (0 no effect, 100 complete control)
In short: as §1

[6] = system: pigweed (Amaranthus retroflexus); assay: Test A postemergence, visual plant response rating; settings: for Pigweed plant response rating (0 to 100 scale): 500 g ai/ha, postemergence, 0 is no effect, 100 is complete control; for Pigweed plant response rating: Postemergence, 125 g ai/ha, 0 to 100 scale (0 no effect, 100 complete control)
In short: as §1

kochia (Kochia scoparia) [7] = assay: Test A postemergence, visual plant response rating; settings: for Kochia plant response rating (0 to 100 scale): 500 g ai/ha, postemergence, 0 is no effect, 100 is complete control; for Kochia plant response rating: Postemergence, 125 g ai/ha, 0 to 100 scale (0 no effect, 100 complete control)
In short: as §1

[8] = system: Italian ryegrass (Lolium multiflorum); assay: Test A postemergence, visual plant response rating; settings: for Ryegrass, Italian plant response rating (0 to 100 scale): 500 g ai/ha, postemergence, 0 is no effect, 100 is complete control; for Ryegrass, Italian plant response rating: Postemergence, 125 g ai/ha, 0 to 100 scale (0 no effect, 100 complete control)
In short: as §1

[9] = system: barnyardgrass (Echinochloa crus-galli); assay: Test A postemergence, visual plant response rating; settings: for Barnyardgrass plant response rating (0 to 100 scale): 500 g ai/ha, postemergence, 0 is no effect, 100 is complete control; for Barnyardgrass plant response rating: Postemergence, 125 g ai/ha, 0 to 100 scale (0 no effect, 100 complete control)
In short: as §1

[10] = system: foxtail, giant (giant foxtail, Setaria faberii); assay: Test A preemergence, visual plant response rating; settings: for Foxtail, Giant plant response rating: 125 g ai/ha, preemergence, 0 to 100 scale, 0 no effect, 100 complete control; for Foxtail, Giant plant response rating (0 to 100 scale): 500 g ai/ha Preemergence, approx. 10 days
In short: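 Preemergence: seeds in loam/sand blend given directed soil spray of compound in non-phytotoxic solvent with surfactant. Postemergence: plants 2–10 cm, one- to two-leaf stage, sprayed with same formulation. Visual injury rated vs untreated controls after ~10 days in greenhouse, 0 (no effect) to 100 (complete control).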

[11] = system: ragweed (common ragweed, Ambrosia elatior); assay: Test A preemergence, visual plant response rating; settings: for Ragweed plant response rating: 125 g ai/ha, preemergence, 0 to 100 scale, 0 no effect, 100 complete control; for Ragweed plant response rating (0 to 100 scale): 500 g ai/ha Preemergence, approx. 10 days
In short: as §1

[12] = system: pigweed (Amaranthus retroflexus); assay: Test A preemergence, visual plant response rating; settings: for Pigweed plant response rating: 125 g ai/ha, preemergence, 0 to 100 scale, 0 no effect, 100 complete control; for Pigweed plant response rating (0 to 100 scale): 500 g ai/ha Preemergence, approx. 10 days
In short: as §1

kochia (Kochia scoparia) [13] = assay: Test A preemergence, visual plant response rating; settings: for Kochia plant response rating: 125 g ai/ha, preemergence, 0 to 100 scale, 0 no effect, 100 complete control; for Kochia plant response rating (0 to 100 scale): 500 g ai/ha Preemergence, approx. 10 days
In short: as §1

[14] = system: Italian ryegrass (Lolium multiflorum); assay: Test A preemergence, visual plant response rating; settings: for Ryegrass, Italian plant response rating: 125 g ai/ha, preemergence, 0 to 100 scale, 0 no effect, 100 complete control; for Ryegrass, Italian plant response rating (0 to 100 scale): 500 g ai/ha Preemergence, approx. 10 days
In short: as §1

[15] = system: barnyardgrass (Echinochloa crus-galli); assay: Test A preemergence, visual plant response rating; settings: for Barnyardgrass plant response rating: 125 g ai/ha, preemergence, 0 to 100 scale, 0 no effect, 100 complete control; for Barnyardgrass plant response rating (0 to 100 scale): 500 g ai/ha Preemergence, approx. 10 days
In short: as §1

[16] = system: ducksalad (Heteranhera limosa); assay: Test B flooded paddy test, visual plant response rating; settings: 250 g ai/ha, Flood, applied to paddy water, 2-leaf stage, evaluated after 13 to 15 days
In short: (§2)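 Flooded-pot treatment: water 3 cm over the soil, chemical delivered into that water, depth unchanged for the duration. Assessed by eye versus controls following 13–15 greenhouse days; plants were at 2 leaves when dosed.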

rice (Oryza sativa) = assay: as above; settings: 250 g ai/ha, Flood, applied to paddy water, 2-leaf stage, evaluated after 13 to 15 days
In short: as §2

[17] = system: sedge, umbrella (small-flower umbrella sedge, Cyperus difformis); assay: as above; settings: 250 g ai/ha, Flood, applied to paddy water, 2-leaf stage, evaluated after 13 to 15 days
In short: as §2

[18] = system: barnyardgrass (Echinochloa crus-galli); assay: as above; settings: 250 g ai/ha, Flood, applied to paddy water, 2-leaf stage, evaluated after 13 to 15 days
In short: as §2

Row | SMILES | Foxtail, Giant plant response rating (0 to 100 scale) [1] | Foxtail, Giant plant response rating [1] | Ragweed plant response rating (0 to 100 scale) [2] | Ragweed plant response rating [2] | Galium plant response rating (0 to 100 scale) [3] | Galium plant response rating [3] | Blackgrass plant response rating (0 to 100 scale) [4] | Blackgrass plant response rating [4] | Wheat plant response rating (0 to 100 scale) [5] | Wheat plant response rating [5] | Corn plant response rating (0 to 100 scale) (corn (Zea mays)) | Corn plant response rating (corn (Zea mays)) | Pigweed plant response rating (0 to 100 scale) [6] | Pigweed plant response rating [6] | Kochia plant response rating (0 to 100 scale) (kochia (Kochia scoparia) [7]) | Kochia plant response rating (kochia (Kochia scoparia) [7]) | Ryegrass, Italian plant response rating (0 to 100 scale) [8] | Ryegrass, Italian plant response rating [8] | Barnyardgrass plant response rating (0 to 100 scale) [9] | Barnyardgrass plant response rating [9] | other results
1 | CON=C(c1c(Cl)ccc(C)c1F)c1c(O)c(C)nn(C)c1=O [Compound 101] | 20 | 0 | 60 | 40 | 80 | 80 | 30 | 0 | 0 | 0 | 0 | 0 | 40 | 10 | 30 | 0 | 10 | 0 | 30 | 30 | Foxtail, Giant plant response rating [10]: 0; Foxtail, Giant plant response rating (0 to 100 scale) [10]: 10; Ragweed plant response rating [11]: 20; Ragweed plant response rating (0 to 100 scale) [11]: 70; Pigweed plant response rating [12]: 0; Pigweed plant response rating (0 to 100 scale) [12]: 10; Kochia plant response rating (kochia (Kochia scoparia) [13]): 0; Kochia plant response rating (0 to 100 scale) (kochia (Kochia scoparia) [13]): 10; Ryegrass, Italian plant response rating [14]: 0; Ryegrass, Italian plant response rating (0 to 100 scale) [14]: 40; Barnyardgrass plant response rating [15]: 0; Barnyardgrass plant response rating (0 to 100 scale) [15]: 10; Plant response rating, Ducksalad (0 to 100 scale, 0 is no effect, 100 is complete control) [16]: 0; Plant response rating, Rice (0 to 100 scale, 0 is no effect, 100 is complete control) (rice (Oryza sativa)): 0; Plant response rating, Sedge, Umbrella (0 to 100 scale, 0 is no effect, 100 is complete control) [17]: 0; Plant response rating, Barnyardgrass (0 to 100 scale, 0 is no effect, 100 is complete control) [18]: 0
2 | CON=C(c1c(O)c(C)nn(C)c1=O)c1cccc2cc(F)ccc12 [Compound 119] | 80 | 70 | 90 | 90 | 100 | 80 | 90 | 80 | 0 | 0 | 40 | 10 | 90 | 80 | 70 | 70 | 90 | 80 | 80 | 70 | Foxtail, Giant plant response rating [10]: 80; Foxtail, Giant plant response rating (0 to 100 scale) [10]: 100; Ragweed plant response rating [11]: 90; Ragweed plant response rating (0 to 100 scale) [11]: 90; Pigweed plant response rating [12]: 80; Pigweed plant response rating (0 to 100 scale) [12]: 100; Kochia plant response rating (kochia (Kochia scoparia) [13]): 30; Kochia plant response rating (0 to 100 scale) (kochia (Kochia scoparia) [13]): 80; Ryegrass, Italian plant response rating [14]: 30; Ryegrass, Italian plant response rating (0 to 100 scale) [14]: 100; Barnyardgrass plant response rating [15]: 50; Barnyardgrass plant response rating (0 to 100 scale) [15]: 80; Plant response rating, Ducksalad (0 to 100 scale, 0 is no effect, 100 is complete control) [16]: 0; Plant response rating, Rice (0 to 100 scale, 0 is no effect, 100 is complete control) (rice (Oryza sativa)): 0; Plant response rating, Sedge, Umbrella (0 to 100 scale, 0 is no effect, 100 is complete control) [17]: 0; Plant response rating, Barnyardgrass (0 to 100 scale, 0 is no effect, 100 is complete control) [18]: 0
